Assay results published in patent US7541020B2, “Aminoalkyl glucosaminide phosphate compounds and their use as adjuvants and immunoeffectors” (priority 1997, dated 2009).
Several values for one entry are separate records, joined by “and”; a condition that tells them apart may be missing. Identical values can stand only once. Like-named read-outs stand apart in the source and are kept apart here.

What was measured:
[1] = Fever response in rabbits (pyrogenicity); type: in vivo; settings: 10 ug/kg; cumulative rise ≥1.5 degree in three rabbits is considered pyrogenic
Description: The AGP compounds were also evaluated for their tendency to induce a fever response in rabbits. Each compound was formulated in 10% (v/v) ethanol/water solution at 100 mg/ml, then diluted with D5W to the desired concentration. The material was injected at 3 ml/kg body weight into 3 rabbits. The rise in core temperature of the rabbits was recorded.

influenza A/HK/68 [2] = system: influenza A/HK/68; set-up: species or system ICR mice; settings: mouse, in vivo
influenza A/HK/68 [3] = system: influenza A/HK/68; set-up: species or system ICR mice; settings: mouse, in vivo; remark: listed apart in the source
influenza A/HK/68 [4] = type: in vivo, ICR mice; settings: mouse, in vivo
E.G7 (OVA) cells = settings: s.c. 25 μg OVA in AGP preparation, spleen cells 21 days later
influenza A/HK/68 [5] = assay: Second intranasal influenza vaccine experiment with aqueous AGP and MPL formulations: vaginal, tracheal wash and serum titers, protection; type: in vivo, BABL/c mice
IL-1β = assay: Cytokine induction in human whole blood ex vivo culture: IL-1β (ELISA); type: cell-based; settings: 4 hr
In short: (§1)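 Compounds in 10% EtOH-water added at 1:10 to human whole blood, 4 hr at 37° C with rotation; RPMI-treated controls. After PBS dilution and centrifugation, supernatant TNF-α and IL-1β measured by ELISA.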

TNF-α = assay: Cytokine induction in human whole blood ex vivo culture: TNF-α (ELISA); type: cell-based; settings: 4 hr
In short: as §1

influenza A/HK/68 [6] = type: in vivo, BALB/c mice; settings: mouse, in vivo
tetanus toxoid [7] = settings: mouse, in vivo, sc
[8] = system: hepatitis B surface antigen (HBsAg); assay: Vaginal wash anti-HBsAg antibody after intranasal HBsAg + AGP-AF; type: in vivo, BALB/c mice; settings: 10 days after the booster immunization; intranasal HBsAg + 10 μg AGP-AF
Excerpt: Vaginal samples were collected 10 days after the booster immunization and assayed for anti-HBsAg antibody.

[9] = system: hepatitis B surface antigen (HBsAg); assay: Anti-HBsAg antibody titer with AGP-SE (ELISA plates coated with HBsAg or p72 peptide); settings: sera day 28 post 2°, 25 μg AGP-SE
influenza A/HK/68 [10] = settings: mouse, in vivo
tetanus toxoid [11] = settings: mouse, in vivo
[12] = system: hepatitis B surface antigen (HBsAg); assay: Serum anti-HBsAg antibody titers after intranasal HBsAg + AGP-AF (ELISA); type: in vivo, BALB/c mice; settings: for Anti HBsAg Titer^−1 IgG1 / Anti HBsAg Titer^−1 IgG2a: K = 10^3
[13] = ELISA plates coated with p72 peptide
[14] = day 22 post 2°, HBsAg + 10 μg AGP-AF intranasally
[15] = serum, day 21 post 3°, intranasal HBsAg + 10 μg AGP-AF

3-Hydroxy-(S)-2-[(R)-3-nonanoyloxytetradecanoylamino]propyl 2-Deoxy-4-O-phosphono-2-[(R)-3-nonanoyloxytetradecanoylamino]-3-O-[(R)-3-nonanoyloxytetradecanoyl]-β-D-glucopyranoside Triethylammonium Salt [B7]
PYROGENICITY Total Rise ° C., 3 rabbits [1]: 4 °C
IgG Titer-1 post 1° (influenza A/HK/68 [2]): 3200
IgG Titer-1 post 2° (influenza A/HK/68 [2]): >102,400
Percent Survival post 1° (influenza A/HK/68 [2]): 60%
Percent Survival post 2° (influenza A/HK/68 [2]): 60%
Anti-influenza Titer^−1 Total IgG (influenza A/HK/68 [3]): 200
Titer−1 IgG1 (influenza A/HK/68 [4]): 3200
Titer−1 IgG2a (influenza A/HK/68 [4]): 100
Titer−1 IgG2b (influenza A/HK/68 [4]): 1600
Titer−1 Total IgG (influenza A/HK/68 [4]): 3200
% Cytotoxicity (E.G7 (OVA) cells; E:T 12.5:1): 29%
% Cytotoxicity (E.G7 (OVA) cells; E:T 25:1): 44%
% Cytotoxicity (E.G7 (OVA) cells; E:T 50:1): 57%

3-O-deacylated monophosphoryl lipid A [MPL®, reference compound]
mucosal adjuvant activity (in words) (influenza A/HK/68 [5]; administered intranasally with influenza vaccine, vaginal and tracheal washes): act as mucosal adjuvants causing the production of IgA at two mucosal sites

4-Hydroxy-(S)-2-[(R)-3-decanoyloxytetradecanoyl]butyl 2-Deoxy-4-O-phosphono-2-[(R)-3-decanoyloxytetradecanoylamino]-3-O-[(R)-3-decanoyltetradecanoyl]-β-D-glucopyranoside Triethylammonium Salt [B10]
IL-1β (IL-1β; Dosage 1000 ng/ml, Table 15): 17 pg/mL
IL-1β (IL-1β; Dosage 5000 ng/ml, Table 15): 61 pg/mL
IL-1β (IL-1β; Dosage 10,000 ng/ml, Table 15): 43 pg/mL
TNF-α (TNF-α; Dosage 1000 ng/ml, Table 15): 73 pg/mL
TNF-α (TNF-α; Dosage 5000 ng/ml, Table 15): 127 pg/mL
TNF-α (TNF-α; Dosage 10,000 ng/ml, Table 15): 207 pg/mL
Anti-influenza Titer^−1 IgG1 (influenza A/HK/68 [6]): 400
Anti-influenza Titer^−1 IgG2a (influenza A/HK/68 [6]): 400
Anti-influenza Titer^−1 IgG2b (influenza A/HK/68 [6]): 400
Anti-influenza Titer^−1 Total IgG (influenza A/HK/68 [6]): 400
Percent Survival (influenza A/HK/68 [6]): 62.5%
PYROGENICITY Total Rise ° C., 3 rabbits [1]: 5.8 °C
IgG Titer-1 post 1° (influenza A/HK/68 [2]): 1600
IgG Titer-1 post 2° (influenza A/HK/68 [2]): 25,600
Percent Survival post 1° (influenza A/HK/68 [2]): 60%
Percent Survival post 2° (influenza A/HK/68 [2]): 90%
Anti-influenza Titer^−1 Total IgG (influenza A/HK/68 [3]): 1600
Percent Survival (influenza A/HK/68 [3]): 40%
% Cytotoxicity (E.G7 (OVA) cells; E:T 12.5:1): 38%
% Cytotoxicity (E.G7 (OVA) cells; E:T 25:1): 56%
% Cytotoxicity (E.G7 (OVA) cells; E:T 50:1): 65%

4-Hydroxy-(S)-3-[(R)-3-decanoyloxytetradecanoyl]butyl 2-Deoxy-4-O-phosphono-2-[(R)-3-decanoyloxytetradecanoylamino]-3-O-[(R)-3-decanoyltetradecanoyl]-β-D-glucopyranoside Triethylammonium Salt [B9]
IL-1β (IL-1β; Dosage 1000 ng/ml, Table 15): 53 pg/mL
IL-1β (IL-1β; Dosage 5000 ng/ml, Table 15): 84 pg/mL
IL-1β (IL-1β; Dosage 10,000 ng/ml, Table 15): 96 pg/mL
TNF-α (TNF-α; Dosage 1000 ng/ml, Table 15): 145 pg/mL
TNF-α (TNF-α; Dosage 5000 ng/ml, Table 15): 247 pg/mL
TNF-α (TNF-α; Dosage 10,000 ng/ml, Table 15): 449 pg/mL
Anti-influenza Titer^−1 IgG1 (influenza A/HK/68 [6]): 1600
Anti-influenza Titer^−1 IgG2a (influenza A/HK/68 [6]): 3200
Anti-influenza Titer^−1 IgG2b (influenza A/HK/68 [6]): 800
Anti-influenza Titer^−1 Total IgG (influenza A/HK/68 [6]): 1600
Percent Survival (influenza A/HK/68 [6]): 87.5%
PYROGENICITY Total Rise ° C., 3 rabbits [1]: 3.1 °C
IgG Titer-1 post 1° (influenza A/HK/68 [2]): 6400
IgG Titer-1 post 2° (influenza A/HK/68 [2]): 12,800
Percent Survival post 1° (influenza A/HK/68 [2]): 80%
Percent Survival post 2° (influenza A/HK/68 [2]): 50%
Anti-influenza Titer^−1 Total IgG (influenza A/HK/68 [3]): 6400
Percent Survival (influenza A/HK/68 [3]): 44%
% Cytotoxicity (E.G7 (OVA) cells; E:T 12.5:1): 36%
% Cytotoxicity (E.G7 (OVA) cells; E:T 25:1): 55%
% Cytotoxicity (E.G7 (OVA) cells; E:T 50:1): 65%

4-[(R)-3-Tetradecanoyloxytetradecanoylamino]butyl 2-Deoxy-4-O-phosphono-3-O-[(R)-3-tetradecanoyoxytetradecanoyl]-2-[(R)-3-tetradecanoyloxytetradecanoylamino])-β-D-glucopyranoside Triethylammonium Salt [B22]
Anti-tetanus toxoid IgG1 T/C (tetanus toxoid [7]): 18.4
Anti-tetanus toxoid IgG1 Titer (tetanus toxoid [7]): 27,400
Anti-tetanus toxoid IgG2a T/C (tetanus toxoid [7]): 345.8
Anti-tetanus toxoid IgG2a Titer (tetanus toxoid [7]): 5,187
Anti-tetanus toxoid IgG2b T/C (tetanus toxoid [7]): 59.6
Anti-tetanus toxoid IgG2b Titer (tetanus toxoid [7]): 3,160
Anti-tetanus toxoid IgM T/C (tetanus toxoid [7]): 0.8
Anti-tetanus toxoid IgM Titer (tetanus toxoid [7]): 440
Anti-tetanus toxoid Total Ig T/C (tetanus toxoid [7]): 60.0
Anti-tetanus toxoid Total Ig Titer (tetanus toxoid [7]): 19,050
Vaginal Wash Anti-HBsAg Titer^−1 IgA [8]: 800
Vaginal Wash Anti-HBsAg Titer^−1 IgG [8]: 100
Anti-HBsAg Titer^−1 HBsAg IgG1 ([9]; ELISA plates coated with HBsAg): 1024K
Anti-HBsAg Titer^−1 HBsAg IgG2a ([9]; ELISA plates coated with HBsAg): 1024K
Anti-HBsAg Titer^−1 p72-Peptide IgG1 [9, 13]: 128K
Anti-HBsAg Titer^−1 p72-Peptide IgG2a [9, 13]: 128K
Percent Survival (influenza A/HK/68 [10]): 40%
Titer−1 IgG1 (influenza A/HK/68 [10]): 100
Titer−1 IgG2a (influenza A/HK/68 [10]): 3200
Titer−1 IgG2b (influenza A/HK/68 [10]): 200
Titer−1 Total IgG (influenza A/HK/68 [10]): 3200
Anti-Tetanus Toxoid Titer^−1 Fecal Extract IgG (tetanus toxoid [11]): 25 and 50
Anti-Tetanus Toxoid Titer^−1 Vaginal Wash IgG (tetanus toxoid [11]): 400 and 800
Anti HBsAg Titer^−1 IgA [12, 14]: 1,600
Anti HBsAg Titer^−1 IgG1 [12, 14]: 256K
Anti HBsAg Titer^−1 IgG2a [12, 14]: 64K
Anti HBsAg Titer^−1 IgG1 [12, 15]: 500K
Anti HBsAg Titer^−1 IgG2a [12, 15]: 500K
Anti HBsAg Titer^−1 IgA [12, 15]: 12,800

N-[(R)-3-Hexanoyloxytetradecanoyl]-O-[2-deoxy-4-O-phosphono-2-[(R)-3-hexanoyloxytetradecanoylamino]-3-O-[(R)-3-hexanoyloxytetradecanoyl]-α-D-glucopyranosyl]-L-serine Triethylammonium Salt [B34]
PYROGENICITY Total Rise ° C., 3 rabbits [1]: 2.8 °C
Mucosal IgA Response TW (influenza A/HK/68 [5]; mouse, in vivo): <4.6
Mucosal IgA Response VW (influenza A/HK/68 [5]; mouse, in vivo): <4.6
Percent Protection (influenza A/HK/68 [5]; mouse, in vivo): 0%
Serum IgG Titers (influenza A/HK/68 [5]; mouse, in vivo): 8.4

N-[(R)-3-decanoyloxytetradecanoyl]-O-[2-deoxy-4-O-phosphono-2-[(R)-3-decanoyloxytetradecanoylamino]-3-O-[(R)-3-decanoyloxytetradecanoyl]-β-D-glucopyranosyl]-D-serine Triethylammonium Salt [B14]
IL-1β (IL-1β; Dosage 500 ng/ml, Table 17): 19.9 pg/mL
IL-1β (IL-1β; Dosage 1000 ng/ml, Table 16): 46 pg/mL
IL-1β (IL-1β; Dosage 1000 ng/ml, Table 17): 10.0 pg/mL
IL-1β (IL-1β; Dosage 5000 ng/ml, Table 16): 71 pg/mL
IL-1β (IL-1β; Dosage 5000 ng/ml, Table 17): 19.0 pg/mL
IL-1β (IL-1β; Dosage 10,000 ng/ml, Table 16): 91 pg/mL
IL-1β (IL-1β; Dosage 10,000 ng/ml, Table 17): 24.6 pg/mL
TNF-α (TNF-α; Dosage 500 ng/ml, Table 17): 49 pg/mL
TNF-α (TNF-α; Dosage 1000 ng/ml, Table 16): 56 pg/mL
TNF-α (TNF-α; Dosage 1000 ng/ml, Table 17): 51 pg/mL
TNF-α (TNF-α; Dosage 5000 ng/ml, Table 16): 120 pg/mL
TNF-α (TNF-α; Dosage 5000 ng/ml, Table 17): 87 pg/mL
TNF-α (TNF-α; Dosage 10,000 ng/ml, Table 16): 249 pg/mL
TNF-α (TNF-α; Dosage 10,000 ng/ml, Table 17): 114 pg/mL
Anti-influenza Titer^−1 IgG1 (influenza A/HK/68 [6]): 6400
Anti-influenza Titer^−1 IgG2a (influenza A/HK/68 [6]): 3200
Anti-influenza Titer^−1 IgG2b (influenza A/HK/68 [6]): 6400
Anti-influenza Titer^−1 Total IgG (influenza A/HK/68 [6]): 3200
Percent Survival (influenza A/HK/68 [6]): 87.5%
IgG Titer-1 post 1° (influenza A/HK/68 [2]): 800
IgG Titer-1 post 2° (influenza A/HK/68 [2]): 51,200
Percent Survival post 1° (influenza A/HK/68 [2]): 33%
Percent Survival post 2° (influenza A/HK/68 [2]): 70%
Anti-influenza Titer^−1 Total IgG (influenza A/HK/68 [3]): 6400
Percent Survival (influenza A/HK/68 [3]): 44%
Percent Survival (influenza A/HK/68 [4]): 30%
Titer^−1 IgG1 (influenza A/HK/68 [4]): 1600
Titer^−1 IgG2a (influenza A/HK/68 [4]): 100
Titer^−1 IgG2b (influenza A/HK/68 [4]): 400
Titer^−1 Total IgG (influenza A/HK/68 [4]): 800
% Cytotoxicity (E.G7 (OVA) cells; E:T 12.5:1): 25%
% Cytotoxicity (E.G7 (OVA) cells; E:T 25:1): 36%
% Cytotoxicity (E.G7 (OVA) cells; E:T 50:1): 45%
